Assay results taken from PubChem BioAssay (NCI).
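GI50 = concentration required for 50% inhibition of growth. At the TGI there is no net growth.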

Assays:
Assay in all cases: NCI anticancer screen, dose series, 384-well format
SNB-75 CNS = system: SNB-75 CNS
IGROV1 ovarian = system: IGROV1 ovarian
HCC-2998 colon = system: HCC-2998 colon
COLO 205 colon = system: COLO 205 colon
NCI-H322M lung = system: NCI-H322M lung
TK-10 renal = system: TK-10 renal
MOLT-4 leukemia = system: MOLT-4 leukemia
HOP-92 NSCLC = system: HOP-92 NSCLC
MDA-MB-231 breast = system: MDA-MB-231 breast
M14 melanoma = system: M14 melanoma
LOX IMVI melanoma = system: LOX IMVI melanoma
OVCAR-8 ovarian = system: OVCAR-8 ovarian
UO-31 renal = system: UO-31 renal
UACC-62 melanoma = system: UACC-62 melanoma
786-0 renal = system: 786-0 renal
SW-620 colon = system: SW-620 colon
HOP-62 NSCLC = system: HOP-62 NSCLC
RXF 393 renal = system: RXF 393 renal
NCI/ADR-RES ovarian = system: NCI/ADR-RES ovarian
NCI-H23 lung = system: NCI-H23 lung
OVCAR-5 ovarian = system: OVCAR-5 ovarian
ACHN renal = system: ACHN renal
SF-268 CNS = system: SF-268 CNS
HS 578T breast = system: HS 578T breast
CAKI-1 renal = system: CAKI-1 renal
KM12 colon = system: KM12 colon
HT29 colon = system: HT29 colon
MALME-3M melanoma = system: MALME-3M melanoma
SK-MEL-28 melanoma = system: SK-MEL-28 melanoma
SF-295 CNS = system: SF-295 CNS
OVCAR-4 ovarian = system: OVCAR-4 ovarian
MCF7 breast = system: MCF7 breast

With Cc1ccc(C(=O)Nc2ccc(Oc3cc4cnn(C)c4cc3-c3cn[nH]c3)c(F)c2)c(=O)n1-c1ccc(F)cc1 the GI50 (SNB-75 CNS) was 6.22 µM, the TGI (SNB-75 CNS) was > 100 µM and the GI50 (IGROV1 ovarian) was 5.27 µM. The TGI (IGROV1 ovarian) was > 100 µM, the GI50 (HCC-2998 colon) was > 100 µM and the TGI (HCC-2998 colon) was > 100 µM. The GI50 (COLO 205 colon) was 4.91 µM, the TGI (COLO 205 colon) was > 100 µM and the GI50 (NCI-H322M lung) was > 100 µM. For the same compound, the TGI (NCI-H322M lung) was > 100 µM, the GI50 (TK-10 renal) was > 100 µM and the TGI (TK-10 renal) was > 100 µM. For the same compound, the GI50 (MOLT-4 leukemia) was 1080 nM, the TGI (MOLT-4 leukemia) was 19.8 µM and the GI50 (HOP-92 NSCLC) was > 100 µM. The TGI (HOP-92 NSCLC) was > 100 µM, the GI50 (MDA-MB-231 breast) was > 100 µM and the TGI (MDA-MB-231 breast) was > 100 µM. The GI50 (M14 melanoma) was 2560 nM, the TGI (M14 melanoma) was > 100 µM and the GI50 (LOX IMVI melanoma) was 4.05 µM. The TGI (LOX IMVI melanoma) was > 100 µM, the GI50 (OVCAR-8 ovarian) was > 100 µM and the TGI (OVCAR-8 ovarian) was > 100 µM. The GI50 (UO-31 renal) was > 100 µM, the TGI (UO-31 renal) was > 100 µM and the GI50 (UACC-62 melanoma) was 2420 nM. The TGI (UACC-62 melanoma) was > 100 µM, the GI50 (786-0 renal) was > 100 µM and the TGI (786-0 renal) was > 100 µM. The GI50 (SW-620 colon) was > 100 µM, the TGI (SW-620 colon) was > 100 µM and the GI50 (HOP-62 NSCLC) was 3.81 µM. For the same compound, the TGI (HOP-62 NSCLC) was > 100 µM, the GI50 (RXF 393 renal) was 2570 nM and the TGI (RXF 393 renal) was > 100 µM. For the same compound, the GI50 (NCI/ADR-RES ovarian) was > 100 µM, the TGI (NCI/ADR-RES ovarian) was > 100 µM and the GI50 (NCI-H23 lung) was 10.4 µM. The TGI (NCI-H23 lung) was > 100 µM, the GI50 (OVCAR-5 ovarian) was > 100 µM and the TGI (OVCAR-5 ovarian) was > 100 µM. The GI50 (ACHN renal) was 6.44 µM, the TGI (ACHN renal) was > 100 µM and the GI50 (SF-268 CNS) was 698 nM. The TGI (SF-268 CNS) was 7.36 µM, the GI50 (HS 578T breast) was 10.6 µM and the TGI (HS 578T breast) was > 100 µM. For the same compound, the GI50 (CAKI-1 renal) was 5.86 µM, the TGI (CAKI-1 renal) was > 100 µM and the GI50 (KM12 colon) was 16.5 nM. The TGI (KM12 colon) was > 100 µM, the GI50 (HT29 colon) was 3.03 µM and the TGI (HT29 colon) was > 100 µM. The GI50 (MALME-3M melanoma) was 5.29 µM, the TGI (MALME-3M melanoma) was > 100 µM and the GI50 (SK-MEL-28 melanoma) was 7.28 µM. For the same compound, the TGI (SK-MEL-28 melanoma) was > 100 µM, the GI50 (SF-295 CNS) was 2370 nM and the TGI (SF-295 CNS) was > 100 µM. The GI50 (OVCAR-4 ovarian) was > 100 µM, the TGI (OVCAR-4 ovarian) was > 100 µM and the GI50 (MCF7 breast) was 5.56 µM. The TGI (MCF7 breast) was > 100 µM.
